Paper PMC7588595, “Small-molecule active pharmaceutical ingredients of approved cancer therapeutics inhibit human aspartate/asparagine-β-hydroxylase” (Bioorganic & Medicinal Chemistry, 2020)

molecular target: T1, human AspH (His6-AspH315–758) (Homo sapiens, UniProt Q12797); assay: SPE-MS AspH inhibition assay (hFX-CP101-119 substrate hydroxylation); assay type: biochemical; settings: AspH-inhibitor screening, 384-well Plate 1
T1 construct: N-Terminally His6-tagged human AspH315–758 (His6-AspH315–758) was produced in Escherichia coli BL21 (DE3) cells; made in house; host or cells: Escherichia coli BL21 (DE3), pET-28a(+) vector
T1 sequence (Q12797 315-758): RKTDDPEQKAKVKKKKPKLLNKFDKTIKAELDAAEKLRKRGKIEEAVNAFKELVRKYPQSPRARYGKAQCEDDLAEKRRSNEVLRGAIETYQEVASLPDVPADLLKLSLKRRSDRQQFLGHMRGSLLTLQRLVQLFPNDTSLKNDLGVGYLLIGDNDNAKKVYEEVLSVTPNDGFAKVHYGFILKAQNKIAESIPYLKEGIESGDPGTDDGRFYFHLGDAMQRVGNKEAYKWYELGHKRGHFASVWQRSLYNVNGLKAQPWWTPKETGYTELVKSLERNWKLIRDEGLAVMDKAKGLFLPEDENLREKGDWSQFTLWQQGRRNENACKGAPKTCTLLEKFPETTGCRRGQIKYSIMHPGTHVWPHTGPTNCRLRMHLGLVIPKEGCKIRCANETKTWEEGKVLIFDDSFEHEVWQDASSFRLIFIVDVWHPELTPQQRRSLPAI

Structure (SMILES) | Plate 1 (% inhibition)
O=C1NC(=O)[C@@H](c2cn3c4c(cccc24)CCC3)[C@@H]1c1c[nH]c2ccccc12 [ARQ 197_Tivantinib] | -6.95%
Cn1cnc2c(F)c(Nc3ccc(Br)cc3F)c(C(=O)NOCCO)cc21 [ARRY-162_MEK-162] | -1.29%
O=C(NC[C@H](O)CO)c1ccncc1Nc1ccc(I)cc1F [AS703026_Pimasertib] | 12.00%
O=C(Nc1c[nH]nc1-c1nc2ccc(CN3CCOCC3)cc2[nH]1)NC1CC1 [AT9283] | -0.09%
CN[C@@H](C)C(=O)N[C@H]1CN(C(=O)CC(C)C)CC[C@H]2CC[C@@H](C(=O)NC(c3ccccc3)c3ccccc3)N2C1=O [AT-406] | 3.10%
COc1cc2nccc(Oc3ccc(NC(=O)Nc4cc(C)on4)c(Cl)c3)c2cc1OC [AV-951 (Tivozanib)] | 11.01%
CC[C@H](CC#N)OC(=O)N[C@@H](C)c1cccc(NC(=O)Nc2ccc(-c3cnco3)c(OC)c2)c1 [AVN944] | -7.04%
CCN(CCO)CCCOc1ccc2c(Nc3cc(CC(=O)Nc4cccc(F)c4)[nH]n3)ncnc2c1 [AZD1152-HQPA] | 1.19%
Cc1cc(Nc2nc(N[C@@H](C)c3ncc(F)cn3)ncc2Cl)n[nH]1 [AZD1480] | -0.12%
CNC(=O)c1cccc(-c2ccc3c(N4CCOC[C@@H]4C)nc(N4CCOC[C@@H]4C)nc3n2)c1 [AZD2014] | 7.73%
Cn1cnc2c(F)c(Nc3ccc(Br)cc3Cl)c(C(=O)NOCCO)cc21 [AZD6244 (Selumetinib)] | 5.13%
COc1ccc(-c2ccc3c(N4CCOC[C@@H]4C)nc(N4CCOC[C@@H]4C)nc3n2)cc1CO [AZD8055] | 0.34%
Cl.NC(=O)Nc1cc(-c2cccc(F)c2)sc1C(=O)N[C@H]1CCCNC1 [AZD 7762 hydrochloride] | 14.30%
C[C@]12CC[C@H](O)CC1=CC[C@@H]1[C@@H]2CC[C@]2(C)C(c3cccnc3)=CC[C@@H]12 [Abiraterone] | 1.80%

same assay, conditions: AspH-inhibitor screening, 384-well Plate 1, substrate conversion

Structure (SMILES) | Plate 1 (% conversion)
O=C1NC(=O)[C@@H](c2cn3c4c(cccc24)CCC3)[C@@H]1c1c[nH]c2ccccc12 [ARQ 197_Tivantinib] | 52.96%
Cn1cnc2c(F)c(Nc3ccc(Br)cc3F)c(C(=O)NOCCO)cc21 [ARRY-162_MEK-162] | 50.34%
O=C(NC[C@H](O)CO)c1ccncc1Nc1ccc(I)cc1F [AS703026_Pimasertib] | 44.21%
O=C(Nc1c[nH]nc1-c1nc2ccc(CN3CCOCC3)cc2[nH]1)NC1CC1 [AT9283] | 49.79%
CN[C@@H](C)C(=O)N[C@H]1CN(C(=O)CC(C)C)CC[C@H]2CC[C@@H](C(=O)NC(c3ccccc3)c3ccccc3)N2C1=O [AT-406] | 48.32%
COc1cc2nccc(Oc3ccc(NC(=O)Nc4cc(C)on4)c(Cl)c3)c2cc1OC [AV-951 (Tivozanib)] | 44.66%
CC[C@H](CC#N)OC(=O)N[C@@H](C)c1cccc(NC(=O)Nc2ccc(-c3cnco3)c(OC)c2)c1 [AVN944] | 53.00%
CCN(CCO)CCCOc1ccc2c(Nc3cc(CC(=O)Nc4cccc(F)c4)[nH]n3)ncnc2c1 [AZD1152-HQPA] | 49.20%
Cc1cc(Nc2nc(N[C@@H](C)c3ncc(F)cn3)ncc2Cl)n[nH]1 [AZD1480] | 49.81%
CNC(=O)c1cccc(-c2ccc3c(N4CCOC[C@@H]4C)nc(N4CCOC[C@@H]4C)nc3n2)c1 [AZD2014] | 46.18%
Cn1cnc2c(F)c(Nc3ccc(Br)cc3Cl)c(C(=O)NOCCO)cc21 [AZD6244 (Selumetinib)] | 47.38%
COc1ccc(-c2ccc3c(N4CCOC[C@@H]4C)nc(N4CCOC[C@@H]4C)nc3n2)cc1CO [AZD8055] | 49.59%
Cl.NC(=O)Nc1cc(-c2cccc(F)c2)sc1C(=O)N[C@H]1CCCNC1 [AZD 7762 hydrochloride] | 43.15%
C[C@]12CC[C@H](O)CC1=CC[C@@H]1[C@@H]2CC[C@]2(C)C(c3cccnc3)=CC[C@@H]12 [Abiraterone] | 48.92%

same assay, conditions: AspH-inhibitor screening, Plate 1-duplicate

Structure (SMILES) | Plate 1-duplicate (% inhibition)
O=C1NC(=O)[C@@H](c2cn3c4c(cccc24)CCC3)[C@@H]1c1c[nH]c2ccccc12 [ARQ 197_Tivantinib] | -13.62%
Cn1cnc2c(F)c(Nc3ccc(Br)cc3F)c(C(=O)NOCCO)cc21 [ARRY-162_MEK-162] | 1.23%
O=C(NC[C@H](O)CO)c1ccncc1Nc1ccc(I)cc1F [AS703026_Pimasertib] | 9.34%
O=C(Nc1c[nH]nc1-c1nc2ccc(CN3CCOCC3)cc2[nH]1)NC1CC1 [AT9283] | 2.46%
CN[C@@H](C)C(=O)N[C@H]1CN(C(=O)CC(C)C)CC[C@H]2CC[C@@H](C(=O)NC(c3ccccc3)c3ccccc3)N2C1=O [AT-406] | -2.44%
COc1cc2nccc(Oc3ccc(NC(=O)Nc4cc(C)on4)c(Cl)c3)c2cc1OC [AV-951 (Tivozanib)] | 0.70%
CC[C@H](CC#N)OC(=O)N[C@@H](C)c1cccc(NC(=O)Nc2ccc(-c3cnco3)c(OC)c2)c1 [AVN944] | -8.24%
CCN(CCO)CCCOc1ccc2c(Nc3cc(CC(=O)Nc4cccc(F)c4)[nH]n3)ncnc2c1 [AZD1152-HQPA] | 0.26%
Cc1cc(Nc2nc(N[C@@H](C)c3ncc(F)cn3)ncc2Cl)n[nH]1 [AZD1480] | 6.11%
CNC(=O)c1cccc(-c2ccc3c(N4CCOC[C@@H]4C)nc(N4CCOC[C@@H]4C)nc3n2)c1 [AZD2014] | 4.94%
Cn1cnc2c(F)c(Nc3ccc(Br)cc3Cl)c(C(=O)NOCCO)cc21 [AZD6244 (Selumetinib)] | 5.57%
COc1ccc(-c2ccc3c(N4CCOC[C@@H]4C)nc(N4CCOC[C@@H]4C)nc3n2)cc1CO [AZD8055] | 4.92%
Cl.NC(=O)Nc1cc(-c2cccc(F)c2)sc1C(=O)N[C@H]1CCCNC1 [AZD 7762 hydrochloride] | 4.66%
C[C@]12CC[C@H](O)CC1=CC[C@@H]1[C@@H]2CC[C@]2(C)C(c3cccnc3)=CC[C@@H]12 [Abiraterone] | 1.40%

same assay, conditions: AspH-inhibitor screening, Plate 1-duplicate, substrate conversion

Structure (SMILES) | Plate 1-duplicate (% conversion)
O=C1NC(=O)[C@@H](c2cn3c4c(cccc24)CCC3)[C@@H]1c1c[nH]c2ccccc12 [ARQ 197_Tivantinib] | 58.79%
Cn1cnc2c(F)c(Nc3ccc(Br)cc3F)c(C(=O)NOCCO)cc21 [ARRY-162_MEK-162] | 51.43%
O=C(NC[C@H](O)CO)c1ccncc1Nc1ccc(I)cc1F [AS703026_Pimasertib] | 47.41%
O=C(Nc1c[nH]nc1-c1nc2ccc(CN3CCOCC3)cc2[nH]1)NC1CC1 [AT9283] | 50.82%
CN[C@@H](C)C(=O)N[C@H]1CN(C(=O)CC(C)C)CC[C@H]2CC[C@@H](C(=O)NC(c3ccccc3)c3ccccc3)N2C1=O [AT-406] | 53.25%
COc1cc2nccc(Oc3ccc(NC(=O)Nc4cc(C)on4)c(Cl)c3)c2cc1OC [AV-951 (Tivozanib)] | 51.69%
CC[C@H](CC#N)OC(=O)N[C@@H](C)c1cccc(NC(=O)Nc2ccc(-c3cnco3)c(OC)c2)c1 [AVN944] | 56.13%
CCN(CCO)CCCOc1ccc2c(Nc3cc(CC(=O)Nc4cccc(F)c4)[nH]n3)ncnc2c1 [AZD1152-HQPA] | 51.91%
Cc1cc(Nc2nc(N[C@@H](C)c3ncc(F)cn3)ncc2Cl)n[nH]1 [AZD1480] | 49.01%
CNC(=O)c1cccc(-c2ccc3c(N4CCOC[C@@H]4C)nc(N4CCOC[C@@H]4C)nc3n2)c1 [AZD2014] | 49.59%
Cn1cnc2c(F)c(Nc3ccc(Br)cc3Cl)c(C(=O)NOCCO)cc21 [AZD6244 (Selumetinib)] | 49.28%
COc1ccc(-c2ccc3c(N4CCOC[C@@H]4C)nc(N4CCOC[C@@H]4C)nc3n2)cc1CO [AZD8055] | 49.60%
Cl.NC(=O)Nc1cc(-c2cccc(F)c2)sc1C(=O)N[C@H]1CCCNC1 [AZD 7762 hydrochloride] | 49.73%
C[C@]12CC[C@H](O)CC1=CC[C@@H]1[C@@H]2CC[C@]2(C)C(c3cccnc3)=CC[C@@H]12 [Abiraterone] | 51.35%
